Assay [1] is described as follows: DPPH radical scavenging by spectrophotometry. Format: biochemical. The settings on record: 30 min at 22 to 24° C., 515 nm, concentrations as quercetin equivalent, read-out: SC50 (concentration required to obtain 50% of a maximum scavenging capacity). The procedure:
After a 30 min incubation at 22 to 24° C., the resultant absorbance was recorded at 515 nm by a double-beam spectrophotometer model UV-2401 (Shimadzu Scientific Instruments Inc., Columbia, Md.). Ascorbate, propyl gallate, and quercetin were used as reference standard. The scavenging capacity%=[1-((Abs of cranberry crude extract/fractions-Abs of blank)/Abs control)]*100. […] Plant Sci. 2002, 163, 1161-1168). The cranberry crude extract/fractions were evaluated and compared with ascorbic acid, propyl gallate and quercetin for the free radical scavenging activity toward stable DPPH radicals. […] Specifically, in referring to FIG. 21, the final concentration of DPPH radical was […].
For orientation: DPPH is a stable violet radical that fades when it is reduced.

For assay [2], the system named is trout hemoglobin-mediated lipid oxidation in washed cod muscle. Put plainly: Hemoglobin-mediated lipid oxidation in washed cod muscle (TBARS). The settings on record: for Effect on lipid oxidation in washed cod muscle: hemoglobin-mediated, 2° C. storage, FIG. 22 and 23; for Inhibition in TBARS formation: washed cod muscle. The procedure:
Furthermore, cod muscle and trout hemoglobin were prepared according to the method described by Richards et al., Role of deoxyhemoglobin in lipid oxidation of washed cod muscle mediated by trout, poultry and beef hemoglobins. Meat Sci. 2002, 62, 157-163. The hemoglobin-mediated lipid oxidation system consisted of washed cod muscle, cranberry crude extract/fractions, streptomycin sulfate, and trout hemoglobin. The final concentration of hemoglobin and cranberry extract/fractions was 12 and 37/74 μmol per kg washed cod muscle, respectively. A control sample containing no cranberry crude extract/fractions was also prepared. The final moisture content of washed cod muscle was adjusted to 90%. pH was adjusted to between 6.10 and 6.30 by 1 M NaOH or HCl. All samples were stored at 2° C. for 7 to 9 days.
The progress of lipid oxidation in washed cod muscle was followed by periodically removing samples and quantifying TBARS formed by a modified method of Buege and Aust Microsomal lipid peroxidation. Method. Enzymol. 1978, LII, 302-310 as described by Richards et al., Role of deoxyhemoglobin in lipid oxidation of washed cod muscle mediated by trout, poultry and beef hemoglobins. Meat Sci. 2002, 62, 157-163. Lag time (LT) is defined as extension in stability compared to control sample which was stable for around 1 day. All trials in this study were conducted in duplicate or triplicate and in each trial triplicate determinations were performed

Assay [3] deals with salmon oil-in water emulsion. Put plainly: Lipid oxidation in salmon oil-in water emulsion. The settings on record: 400 ppm, 10% salmon oil, 0.5% tween 20, pH 3.0, 27° C. The procedure:
Similarly, applicants have tested cranberry fractions in various emulsion systems (FIGS. 7-0). More specifically, FIG. 7, illustrates the effect of quercetin on lipid oxidation in salmon oil-in water emulsion. […] The emulsion consisted of 10% (w/w) salmon oil, 0.5% (w/w) tween 20 and 10 mM pH 3.0 acetate-imidazole buffer. Quercetin was added into the emulsion samples at the level of 400 ppm. The emulsion samples were oxidized in a shaker oven at 27° C. Likewise, FIG. 8, also illustrates the effect of cranberry fractions on lipid oxidation in salmon oil-in water emulsion. However, cranberry fractions and quercetin were added into the emulsion samples at the level of 400 ppm. Also, FIGS. 9 and 10 illustrate the effect of cranberry fractions on lipid oxidation in salmon oil-in water emulsion. However, 10% salmon oil was used in both fraction 4 and control treated samples, whereas 9.2% oil was used in the fraction 2 treated sample.

The subject of assay [4] is mechanically separated turkey (MST). Put plainly: Lipid oxidation (TBARS) in mechanically separated turkey during iced storage.

This note sets out measurements from patent US20050175762A1, “Methods and compositions to inhibit lipid oxidation” (priority 2003, published 2005).

Regarding `O=C1O[C@H]([C@@H](O)CO)C(O)=C1O` [ascorbic acid], the EC50 in assay [1] stood at 12.2 µM.
Turning to `CCCOC(=O)c1cc(O)c(O)c(O)c1` [propyl gallate], the EC50 in assay [1] was 5.07 µM. In addition, the “Effect on lipid oxidation in washed cod muscle” value in assay [2] is “stable throughout the entire storage period”.
Turning to `O=c1c(O)c(-c2ccc(O)c(O)c2)oc2cc(O)cc(O)c12` [quercetin], the EC50 in assay [1] stood at 4.89 µM. For the same molecule, the “Inhibition in TBARS formation” value in assay [2] (37 μmol quercetin per kg) is given as 83%; in assay [2] (74 mmole quercetin equivalent), “Up to 94%”. In addition, in assay [2], the “Effect on lipid oxidation in washed cod muscle” value is given as “as effective as 37 mmole propyl gallate”. Further, the “Effect on lipid oxidation in emulsion systems” value in assay [3] is “In 2 of 3 trials, quercetin was inhibitory”. In assay [4] (210 umol quercetin/kg MST, 2° C. storage), the “Inhibition on lipid oxidation of MST” value is “Effective inhibition”. In assay [4] (quercetin at 50 umol/kg, precipitate added on a quercetin equivalent basis (FIG. 5)), the “Inhibition of lipid oxidation in MST” value is “highly effective”.
